Experiment [1] has as its system ROON-S2. To be noted: mean ± SD, ref Tibbs et al. 1997, Tibbs et al. 1998; cited from earlier work.
The target of experiment [2] is T1, X-βR/αC (Bos taurus, UniProt Q00194, A200G/A344S/A378F/A555S/A582V/A614G/C169F/D157S/D193E/D502E/D538A/D577E/D604Q/DEL101-144/DEL91-95/E147F/E148K/E189Q/E196F/E230D/E231L/F201L/F214C/F374V/F533Y/G160D/G591K/I156V/I181L/I182V/I235R/I504V/I530V/I566L/I609E/I611V/INS98[…]/K146T/K150R/K151W/K237N/K239I/K346C/K506R/K518R/K521Q/K554M/K590Q/K596R/K598R/L195F/L199V/L210I/L351F/L548I/M175L/M213T/M580R/M592V/M602R/N161D/N165Y/N610S/N613A/P158Q/P173A/Q599E/Q97T/R232A/R345F/R369K/S192D/S205C/S240R/S350C/S371E/S537G/S540L/S553N/T162I/T171A/T179I/T217L/T364M/T584S/V153G/V154F/V174S/V208I/V215I/V487E/V497T/V534A/Y194N/Y197L).
T1 sequence (Q00194 with tags, fused parts or gaps DEL91-95/Q97T/INS98[…]/DEL101-144/K146T/E147F/E148K/K150R/K151W/V153G/V154F/I156V/D157S/P158Q/G160D/N161D/T162I/N165Y/C169F/T171A/P173A/V174S/M175L/T179I/I181L/I182V/E189Q/S192D/D193E/Y194N/L195F/E196F/Y197L/L199V/A200G/F201L/S205C/V208I/L210I/M213T/F214C/V215I/T217L/E230D/E231L/R232A/I235R/K237N/K239I/S240R/A344S/R345F/K346C/S350C/L351F/T364M/R369K/S371E/F374V/A378F/V487E/V497T/D502E/I504V/K506R/K518R/K521Q/I530V/F533Y/V534A/S537G/D538A/S540L/L548I/S553N/K554M/A555S/I566L/D577E/M580R/A582V/T584S/K590Q/G591K/M592V/K596R/K598R/Q599E/M602R/D604Q/I609E/N610S/I611V/N613A/A614G): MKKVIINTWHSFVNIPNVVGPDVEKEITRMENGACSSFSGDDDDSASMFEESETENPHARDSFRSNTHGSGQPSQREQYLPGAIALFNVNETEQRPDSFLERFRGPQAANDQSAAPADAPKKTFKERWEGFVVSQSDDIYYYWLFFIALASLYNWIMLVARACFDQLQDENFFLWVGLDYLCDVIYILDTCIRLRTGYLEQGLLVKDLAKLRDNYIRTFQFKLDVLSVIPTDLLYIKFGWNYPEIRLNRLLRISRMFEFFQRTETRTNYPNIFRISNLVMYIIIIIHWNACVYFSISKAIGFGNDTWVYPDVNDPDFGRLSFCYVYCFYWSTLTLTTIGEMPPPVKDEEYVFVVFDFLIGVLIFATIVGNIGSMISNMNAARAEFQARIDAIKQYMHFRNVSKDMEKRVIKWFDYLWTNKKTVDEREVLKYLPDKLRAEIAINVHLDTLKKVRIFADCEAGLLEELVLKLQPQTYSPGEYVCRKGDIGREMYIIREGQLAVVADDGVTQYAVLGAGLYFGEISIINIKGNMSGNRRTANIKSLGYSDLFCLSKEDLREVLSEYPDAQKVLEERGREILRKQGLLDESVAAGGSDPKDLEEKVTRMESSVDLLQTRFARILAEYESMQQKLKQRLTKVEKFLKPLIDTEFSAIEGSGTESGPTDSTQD
Briefly: Macroscopic current dose–response in inside-out patches from Xenopus oocytes. Format: cell-based, chimera of bovine CNG1, catfish CNG2 and rat CNG5.

In experiment [3] the target is T2, X-α homomeric channels (Bos taurus, UniProt Q00194, A200G/A344S/A378F/A555M/A614G/C169F/D157S/D193E/D538A/D604Q/DEL101-144/DEL91-95/E147F/E148K/E189Q/E196F/E230D/E231L/F201L/F214C/F374V/G160D/G591K/I156V/I181L/I182V/I235R/I530V/I609E/I611V/INS98[…]/K146T/K150R/K151W/K237N/K239I/K346C/K506R/K521Q/K551Q/K564R/K590Q/K596R/K598R/L195F/L199V/L210I/L351F/L583V/M175L/M213T/M592V/M602R/N161D/N165Y/N610S/N613A/P158Q/P173A/Q494R/Q599E/Q97T/R232A/R345F/R369K/R512K/S192D/S205C/S240R/S350C/S371E/S537T/S540G/T162I/T171A/T179I/T217L/T364M/T584A/V153G/V154F/V174S/V208I/V215I/V534A/V535L/Y194N/Y197L/Y541C).
T2 sequence (Q00194 with tags, fused parts or gaps DEL91-95/Q97T/INS98[…]/DEL101-144/K146T/E147F/E148K/K150R/K151W/V153G/V154F/I156V/D157S/P158Q/G160D/N161D/T162I/N165Y/C169F/T171A/P173A/V174S/M175L/T179I/I181L/I182V/E189Q/S192D/D193E/Y194N/L195F/E196F/Y197L/L199V/A200G/F201L/S205C/V208I/L210I/M213T/F214C/V215I/T217L/E230D/E231L/R232A/I235R/K237N/K239I/S240R/A344S/R345F/K346C/S350C/L351F/T364M/R369K/S371E/F374V/A378F/Q494R/K506R/R512K/K521Q/I530V/V534A/V535L/S537T/D538A/S540G/Y541C/K551Q/A555M/K564R/L583V/T584A/K590Q/G591K/M592V/K596R/K598R/Q599E/M602R/D604Q/I609E/N610S/I611V/N613A/A614G): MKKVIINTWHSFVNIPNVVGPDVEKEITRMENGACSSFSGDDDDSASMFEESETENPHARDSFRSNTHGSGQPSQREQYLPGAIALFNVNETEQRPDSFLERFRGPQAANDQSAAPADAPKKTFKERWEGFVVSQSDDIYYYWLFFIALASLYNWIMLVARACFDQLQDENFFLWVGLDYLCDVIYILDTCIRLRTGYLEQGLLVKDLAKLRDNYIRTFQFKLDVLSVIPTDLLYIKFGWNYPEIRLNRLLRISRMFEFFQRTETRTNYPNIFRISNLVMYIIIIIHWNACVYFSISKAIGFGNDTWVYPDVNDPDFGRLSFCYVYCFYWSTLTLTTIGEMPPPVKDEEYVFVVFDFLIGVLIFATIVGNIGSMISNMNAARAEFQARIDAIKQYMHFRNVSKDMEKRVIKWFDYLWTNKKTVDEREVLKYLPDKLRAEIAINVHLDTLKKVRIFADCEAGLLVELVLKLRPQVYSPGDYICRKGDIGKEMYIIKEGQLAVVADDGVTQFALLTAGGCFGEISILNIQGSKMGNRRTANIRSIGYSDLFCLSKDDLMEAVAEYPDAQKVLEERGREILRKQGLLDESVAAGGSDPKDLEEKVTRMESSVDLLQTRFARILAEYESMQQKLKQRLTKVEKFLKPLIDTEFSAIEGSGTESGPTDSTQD
The experiment is described as above. Format: cell-based, chimera of bovine CNG1 and catfish CNG2.

On to `Nc1nc2c(ncn2[C@@H]2O[C@@H]3COP(=O)([O-])O[C@H]3[C@H]2O)c(=O)[nH]1.[Na+]` [cGMP], for which the Hill coefficient h in experiment [1] was 1.89 ± 0.38 (10); in experiment [2] (one patch (Fig. 6 B2), −100 mV, Hill fit ± SE), 1.95 ± 0.22; in experiment [3] (−100 mV, Hill fit of composite dataset, cGMP: only data ≤3 mM), 1.210 ± 0.046. Moreover, the Desensitization result is reported as “No” in experiment [2] and “Yes” in experiment [3] (agonist up to 30 mM). In addition, the “agonist concentration at maximum of steady-state Popen dose–response curve” value in experiment [3] is reported as about 3 mM. Further, the “agonist concentration at which macroscopic current decays (desensitization)” value in experiment [3] (steady-state level lower than in 3 mM cGMP) is at least 10 mM.
